Reference: ChEMBL document CHEMBL1201862, “PubChem BioAssay data set” (2004)
Each block holds one molecule with its values, some of them ahead of it. Calls of active or inactive are those of the source.

Tests used:
[1] = biological target: DNA dC->dU-editing enzyme APOBEC-3A (Homo sapiens, UniProt P31941); assay: A3A deaminase inhibition for selectivity – biochemical, dose response (AID 504722); assay type: functional
[2] = biological target: DNA dC->dU-editing enzyme APOBEC-3G (Homo sapiens, UniProt Q9HC16); assay: Dose Response confirmation of small molecule APOBEC3G DNA Deaminase Inhibitors via a fluorescence-based single-stranded DNA deaminase assay. [Related pubchem assays (depositor defined):AID493012, AID493028]; assay type: functional
Chain of DNA dC->dU-editing enzyme APOBEC-3G (Q9HC16 whole entry): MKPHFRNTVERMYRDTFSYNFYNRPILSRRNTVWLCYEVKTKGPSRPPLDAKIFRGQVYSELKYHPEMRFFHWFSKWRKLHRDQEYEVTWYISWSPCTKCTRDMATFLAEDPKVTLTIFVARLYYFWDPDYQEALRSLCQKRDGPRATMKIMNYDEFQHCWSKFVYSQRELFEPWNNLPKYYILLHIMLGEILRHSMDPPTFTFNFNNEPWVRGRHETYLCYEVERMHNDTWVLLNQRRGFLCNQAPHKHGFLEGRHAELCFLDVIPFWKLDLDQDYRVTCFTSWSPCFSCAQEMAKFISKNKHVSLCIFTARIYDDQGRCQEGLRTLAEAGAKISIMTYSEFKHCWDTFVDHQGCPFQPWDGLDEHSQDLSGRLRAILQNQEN

[3] = biological target: ATP-dependent molecular chaperone HSP82 (Candida albicans (strain WO-1) (Yeast), UniProt C4YTQ8); assay: steroid-induced GRE reporter decrease in yeast – S. cerevisiae, luminescence, Hsp90 inhibitor project, dose response (AID 2400); assay type: functional, cell-based;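 also: beta-galactosidase luminescence from glucocorticoid response element reporter as proxy for Hsp90 function; inhibitor potency where signal loss means Hsp90 inhibition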
Chain of ATP-dependent molecular chaperone HSP82 (C4YTQ8 whole entry): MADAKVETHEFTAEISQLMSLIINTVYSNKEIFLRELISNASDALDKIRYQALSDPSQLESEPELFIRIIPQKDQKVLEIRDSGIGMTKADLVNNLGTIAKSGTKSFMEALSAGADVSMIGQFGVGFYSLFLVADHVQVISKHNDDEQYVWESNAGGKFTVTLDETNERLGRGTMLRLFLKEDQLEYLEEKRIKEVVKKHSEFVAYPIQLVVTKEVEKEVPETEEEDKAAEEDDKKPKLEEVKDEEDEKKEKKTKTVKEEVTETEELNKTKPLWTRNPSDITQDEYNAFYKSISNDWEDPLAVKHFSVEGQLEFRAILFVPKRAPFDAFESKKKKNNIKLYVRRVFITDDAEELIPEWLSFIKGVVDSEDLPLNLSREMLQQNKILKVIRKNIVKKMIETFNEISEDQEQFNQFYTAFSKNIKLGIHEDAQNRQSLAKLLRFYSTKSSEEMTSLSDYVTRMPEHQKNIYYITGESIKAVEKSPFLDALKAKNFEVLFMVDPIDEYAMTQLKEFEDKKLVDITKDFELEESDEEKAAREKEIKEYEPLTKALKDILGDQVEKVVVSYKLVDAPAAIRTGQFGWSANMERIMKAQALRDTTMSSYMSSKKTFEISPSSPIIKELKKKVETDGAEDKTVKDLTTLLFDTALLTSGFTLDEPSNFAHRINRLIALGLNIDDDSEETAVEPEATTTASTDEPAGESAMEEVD

[4] = fluconazole-exposed Candida albicans growth modulators – fluorescence, retest, confirmation (AID 2467); assay type: functional, cell-based
[5] = biological target: T1, Serine/threonine-protein phosphatase (Candida dubliniensis (strain CD36 / CBS 7987 / NCPF 3949 / NRRLY-17841) (Yeast), UniProt B9W6M3); assay: blockers of CaCl2-induced CDRE-lacZ signaling – S. cerevisiae, luminescence, secondary, dose response (AID 2388); assay type: functional, cell-based;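 also: yeast reporter cells carrying a calcineurin-responsive lacZ construct stimulated with calcium chloride; luminescent beta-galactosidase reporter signal in whole cells rather than isolated phosphatase activity; potency for inhibition where a drop in reporter signal means calcineurin blockade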
T1 sequence (B9W6M3 whole entry): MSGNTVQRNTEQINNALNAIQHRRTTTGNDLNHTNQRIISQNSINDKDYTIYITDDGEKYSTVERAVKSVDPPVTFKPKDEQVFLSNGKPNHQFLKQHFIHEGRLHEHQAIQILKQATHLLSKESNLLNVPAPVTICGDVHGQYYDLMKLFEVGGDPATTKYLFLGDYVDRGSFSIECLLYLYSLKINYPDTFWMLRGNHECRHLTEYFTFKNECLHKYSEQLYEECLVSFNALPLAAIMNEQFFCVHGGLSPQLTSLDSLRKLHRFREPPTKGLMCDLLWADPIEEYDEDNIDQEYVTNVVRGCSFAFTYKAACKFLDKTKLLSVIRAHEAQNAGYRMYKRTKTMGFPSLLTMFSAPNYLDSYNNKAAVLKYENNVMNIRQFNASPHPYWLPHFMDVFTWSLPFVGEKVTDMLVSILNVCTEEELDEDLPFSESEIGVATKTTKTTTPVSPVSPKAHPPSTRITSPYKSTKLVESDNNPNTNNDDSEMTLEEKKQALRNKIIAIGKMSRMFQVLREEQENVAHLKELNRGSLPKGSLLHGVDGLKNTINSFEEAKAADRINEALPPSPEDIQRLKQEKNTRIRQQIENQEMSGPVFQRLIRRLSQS

Cytochrome P450 2C19 = Cytochrome P450 2C19 (Homo sapiens, UniProt P33261); assay: Cytochrome panel assay with activity outcomes. Panel member name: p450-cyp2c19 Compounds with AC50 equal or less than 10 uM are considered active; assay type: functional
Chain of Cytochrome P450 2C19 (P33261 whole entry): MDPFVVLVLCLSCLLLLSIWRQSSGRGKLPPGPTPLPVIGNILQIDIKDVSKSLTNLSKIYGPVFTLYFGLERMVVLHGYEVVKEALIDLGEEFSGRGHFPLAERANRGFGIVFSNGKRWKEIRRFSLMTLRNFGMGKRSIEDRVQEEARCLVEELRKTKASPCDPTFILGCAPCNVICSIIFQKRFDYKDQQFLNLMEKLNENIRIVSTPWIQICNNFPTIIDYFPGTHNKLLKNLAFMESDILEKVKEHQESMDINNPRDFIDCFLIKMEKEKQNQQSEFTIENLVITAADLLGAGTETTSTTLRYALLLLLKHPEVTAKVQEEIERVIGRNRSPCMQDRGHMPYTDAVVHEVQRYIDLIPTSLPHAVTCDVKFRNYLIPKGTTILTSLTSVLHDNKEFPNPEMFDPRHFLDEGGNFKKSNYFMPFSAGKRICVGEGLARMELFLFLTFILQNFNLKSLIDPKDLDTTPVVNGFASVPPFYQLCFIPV

[6] = NIH-3T3 fibroblast cytotoxicity, dose response, cytotoxicity control, cell-based, fluorescence, Alamar Blue, secondary assay (AID 2327); assay type: functional;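 also: NIH-3T3 mouse fibroblasts cultured with fluconazole at 8 µg/mL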
[7] = biological target: Glyceraldehyde-3-phosphate dehydrogenase (Homo sapiens, UniProt P04406)
Chain of Glyceraldehyde-3-phosphate dehydrogenase (P04406 whole entry): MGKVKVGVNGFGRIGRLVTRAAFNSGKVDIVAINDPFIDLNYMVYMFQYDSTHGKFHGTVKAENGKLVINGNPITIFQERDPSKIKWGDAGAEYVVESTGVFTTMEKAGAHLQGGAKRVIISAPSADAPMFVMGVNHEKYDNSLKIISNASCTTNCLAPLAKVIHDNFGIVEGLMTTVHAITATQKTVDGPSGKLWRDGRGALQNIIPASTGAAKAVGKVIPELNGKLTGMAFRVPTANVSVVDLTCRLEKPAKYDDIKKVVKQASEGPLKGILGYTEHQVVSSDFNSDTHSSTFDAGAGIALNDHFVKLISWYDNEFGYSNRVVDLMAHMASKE

[8] = biological target: T2, Alkaline phosphatase, tissue-nonspecific isozyme (Homo sapiens, UniProt P05186); assay: potency against alkaline phosphatase TNAP – biochemical, luminescent, dose response, SAR follow-up (AID 1056)
T2 sequence (P05186 whole entry): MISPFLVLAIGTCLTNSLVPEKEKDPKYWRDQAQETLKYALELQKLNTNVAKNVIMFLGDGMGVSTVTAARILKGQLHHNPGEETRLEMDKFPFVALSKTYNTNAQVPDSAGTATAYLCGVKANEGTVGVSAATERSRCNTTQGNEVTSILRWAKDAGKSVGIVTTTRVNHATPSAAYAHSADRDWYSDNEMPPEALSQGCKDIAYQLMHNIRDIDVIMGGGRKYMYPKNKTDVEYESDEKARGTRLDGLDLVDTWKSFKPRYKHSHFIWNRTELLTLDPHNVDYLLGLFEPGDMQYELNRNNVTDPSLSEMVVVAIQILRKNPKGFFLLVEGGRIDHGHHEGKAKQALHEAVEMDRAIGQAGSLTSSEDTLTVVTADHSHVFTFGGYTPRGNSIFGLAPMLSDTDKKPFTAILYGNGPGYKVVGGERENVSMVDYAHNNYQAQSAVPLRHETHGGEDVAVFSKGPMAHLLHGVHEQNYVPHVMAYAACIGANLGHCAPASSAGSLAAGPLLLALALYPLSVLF

[9] = biological target: Alkaline phosphatase, placental type (Homo sapiens, UniProt P05187); assay: human placental alkaline phosphatase inhibition – biochemical, luminescence, confirmation (AID 1512); assay type: functional
Chain of Alkaline phosphatase, placental type (P05187 whole entry): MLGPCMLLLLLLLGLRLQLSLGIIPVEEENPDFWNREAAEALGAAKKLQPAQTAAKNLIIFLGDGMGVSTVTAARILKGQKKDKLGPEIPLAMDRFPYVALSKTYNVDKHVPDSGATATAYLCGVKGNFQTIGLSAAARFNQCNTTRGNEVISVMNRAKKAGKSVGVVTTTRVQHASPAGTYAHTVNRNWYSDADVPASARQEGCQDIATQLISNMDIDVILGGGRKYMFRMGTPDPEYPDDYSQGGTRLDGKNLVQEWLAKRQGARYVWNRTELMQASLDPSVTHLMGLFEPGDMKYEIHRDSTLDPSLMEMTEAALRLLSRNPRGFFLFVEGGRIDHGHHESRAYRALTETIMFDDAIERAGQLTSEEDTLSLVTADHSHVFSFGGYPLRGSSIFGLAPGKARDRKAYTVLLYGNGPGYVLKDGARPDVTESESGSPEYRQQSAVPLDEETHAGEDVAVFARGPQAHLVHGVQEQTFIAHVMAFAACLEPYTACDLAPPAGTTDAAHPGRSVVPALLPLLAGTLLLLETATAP

[10] = biological target: G-protein coupled receptor 55 (Homo sapiens, UniProt Q9Y2T6); assay: inhibition of LPI-stimulated GPR55 beta-arrestin translocation – imaging, U2OS, beta-arrestin-GFP, LPI agonist, primary screen (AID 2013); assay type: functional;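 also: antagonist potency measured as reduced agonist-driven arrestin aggregation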
Chain of G-protein coupled receptor 55 (Q9Y2T6 whole entry): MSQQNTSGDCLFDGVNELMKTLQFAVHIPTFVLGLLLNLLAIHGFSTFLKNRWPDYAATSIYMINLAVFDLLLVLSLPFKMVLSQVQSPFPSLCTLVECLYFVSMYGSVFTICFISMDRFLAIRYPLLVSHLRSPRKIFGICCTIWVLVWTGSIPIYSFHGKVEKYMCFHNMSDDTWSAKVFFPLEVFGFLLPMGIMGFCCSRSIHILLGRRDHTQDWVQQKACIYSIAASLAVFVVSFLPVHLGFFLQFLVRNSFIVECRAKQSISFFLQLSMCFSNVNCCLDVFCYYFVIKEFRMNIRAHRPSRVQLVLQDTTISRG

Vero = assay: viability of Vero cells under compound – cytotoxicity control for flavivirus capping enzyme inhibitors (AID 588742); assay type: functional; conditions: Chlorocebus sabaeus
Bcl-2-related protein A1 = biological target: T3, Bcl-2-related protein A1 (Mus musculus, UniProt Q07440); assay type: functional;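 also: confirmatory dose–response counterscreen on Bfl-1, used to check hits from a UBC13 polyubiquitin inhibitor campaign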
T3 sequence (Q07440 whole entry): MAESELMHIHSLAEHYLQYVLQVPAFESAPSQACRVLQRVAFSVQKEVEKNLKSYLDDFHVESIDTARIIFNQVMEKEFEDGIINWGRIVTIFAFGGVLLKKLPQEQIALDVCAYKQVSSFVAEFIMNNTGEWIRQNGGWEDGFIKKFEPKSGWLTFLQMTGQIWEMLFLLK

[11] = biological target: T4, Ubiquitin-conjugating enzyme E2 N (Homo sapiens, UniProt P61088); assay type: functional
T4 sequence (P61088 whole entry): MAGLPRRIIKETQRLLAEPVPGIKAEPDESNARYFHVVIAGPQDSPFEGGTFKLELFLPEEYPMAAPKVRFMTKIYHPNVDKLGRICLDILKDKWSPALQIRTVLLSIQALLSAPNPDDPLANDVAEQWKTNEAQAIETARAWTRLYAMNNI

[12] = biological target: T4, Ubiquitin-conjugating enzyme E2 N; assay type: functional; remark: listed apart in the source
[13] = inhibition of ARNT PAS-B/TACC3 complex formation – biochemical, AlphaScreen, cherry-picked samples, confirmation (AID 651703); assay type: functional, Homo sapiens;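 also: His-tagged ARNT PAS-B domain paired with GST-TACC3 E629A dimer coactivator fragment; potency of inhibitors that break up the complex and lower AlphaScreen signal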
ORF 73 = biological target: T5, ORF 73 (Human herpesvirus 8, UniProt O40947); assay: KSHV LANA DNA-binding disruption – biochemical, fluorescence polarization, cherry-picked samples, dose response (AID 504725); set-up: species or system Human gammaherpesvirus 8;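 also: fluorescence polarization of a labeled DNA duplex reporting LANA DNA binding; potency is for inhibitors that block LANA binding to the DNA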
T5 sequence (O40947 whole entry): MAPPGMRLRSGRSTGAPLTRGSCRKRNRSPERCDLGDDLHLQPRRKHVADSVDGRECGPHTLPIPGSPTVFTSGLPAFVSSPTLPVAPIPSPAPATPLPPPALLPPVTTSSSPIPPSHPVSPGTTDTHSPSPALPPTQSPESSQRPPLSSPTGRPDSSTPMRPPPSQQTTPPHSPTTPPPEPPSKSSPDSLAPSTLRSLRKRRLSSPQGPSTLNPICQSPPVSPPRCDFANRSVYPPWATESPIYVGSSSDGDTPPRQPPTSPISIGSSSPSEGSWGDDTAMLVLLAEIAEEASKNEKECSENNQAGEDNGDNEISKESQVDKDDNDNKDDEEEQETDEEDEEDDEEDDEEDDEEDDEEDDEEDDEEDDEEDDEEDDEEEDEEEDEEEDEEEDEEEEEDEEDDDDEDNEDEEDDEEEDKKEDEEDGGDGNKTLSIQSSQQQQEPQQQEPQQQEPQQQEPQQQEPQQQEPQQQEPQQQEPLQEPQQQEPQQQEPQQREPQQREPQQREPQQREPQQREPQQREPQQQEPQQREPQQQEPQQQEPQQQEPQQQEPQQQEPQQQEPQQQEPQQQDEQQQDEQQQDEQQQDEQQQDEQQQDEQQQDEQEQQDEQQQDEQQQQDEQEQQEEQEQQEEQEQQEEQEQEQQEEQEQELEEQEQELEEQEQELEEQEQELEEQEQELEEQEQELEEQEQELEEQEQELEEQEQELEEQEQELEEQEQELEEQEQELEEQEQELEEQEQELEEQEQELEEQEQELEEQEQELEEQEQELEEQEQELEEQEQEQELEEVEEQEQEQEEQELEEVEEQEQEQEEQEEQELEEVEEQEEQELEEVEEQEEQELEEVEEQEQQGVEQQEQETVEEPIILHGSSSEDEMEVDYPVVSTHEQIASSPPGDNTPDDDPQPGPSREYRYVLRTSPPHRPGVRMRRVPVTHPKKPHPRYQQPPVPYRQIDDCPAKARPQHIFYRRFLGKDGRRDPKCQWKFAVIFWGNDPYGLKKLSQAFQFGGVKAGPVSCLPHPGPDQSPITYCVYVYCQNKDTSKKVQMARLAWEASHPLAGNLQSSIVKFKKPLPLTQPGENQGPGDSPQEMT

[14] = biological target: T6, Microphthalmia-associated transcription factor (Homo sapiens, UniProt O75030); assay: reducers of TRPM1 reporter luminescence, concentration series – cell-based, SK-MEL-5, cherry-picked, set 3, MITF inhibitor project, dose response (AID 493073); assay type: functional;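 also: SK-MEL-5 melanoma cells with luciferase driven by the MITF target TRPM1 promoter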
T6 sequence (O75030 whole entry): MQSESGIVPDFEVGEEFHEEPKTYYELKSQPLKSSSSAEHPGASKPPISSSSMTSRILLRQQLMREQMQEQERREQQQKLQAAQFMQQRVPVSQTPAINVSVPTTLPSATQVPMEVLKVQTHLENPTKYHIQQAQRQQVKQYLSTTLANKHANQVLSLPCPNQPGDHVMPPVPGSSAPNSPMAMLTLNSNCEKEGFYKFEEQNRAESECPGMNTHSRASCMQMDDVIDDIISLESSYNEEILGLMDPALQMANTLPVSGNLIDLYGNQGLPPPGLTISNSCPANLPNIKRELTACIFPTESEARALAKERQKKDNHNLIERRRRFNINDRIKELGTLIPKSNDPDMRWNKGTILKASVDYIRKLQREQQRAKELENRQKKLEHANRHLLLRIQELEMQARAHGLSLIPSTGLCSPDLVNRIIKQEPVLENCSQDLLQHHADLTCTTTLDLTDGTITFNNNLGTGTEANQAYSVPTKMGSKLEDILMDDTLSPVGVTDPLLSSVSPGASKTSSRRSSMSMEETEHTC

[15] = decrease of insulin promoter-GFP reporter – imaging, high-content screening, mouse beta cells (AID 1628); assay type: functional; conditions: MIN6
[16] = Trypanosoma cruzi growth suppression in host cells – NIH3T3 host cells, beta-gal luminescence, confirmation (AID 2044); assay type: functional, cell-based;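 also: intracellular parasites grown in NIH/3T3 mouse fibroblasts as host cells; luminescent beta-galactosidase reporter signal from transgenic T. cruzi replicating inside host cells; inhibitors lower the luminescence signal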
[17] = MIN6 cell viability loss – mouse insulinoma, cytotoxicity control, dose response (AID 2122); assay type: functional;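 also: confirmatory high-throughput counterscreen run to flag cytotoxic compounds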
INS1 = assay: INS-1E survival protection against cytokine death – cell-based, luminescence, retest, dose response (AID 449756); assay type: functional; conditions: Rattus norvegicus;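 also: cell death triggered by IL-1 beta plus TNF-alpha plus IFN-gamma mixture; protective hits raise ATP signal compared with cytokine alone wells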
[18] = NIH3T3 cell viability loss – ATP luminescence, mouse fibroblasts, counter-screen, dose response (AID 2010); assay type: functional, cell-based;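 also: cells exposed to compound for about 90 hours before reading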
[19] = biological target: Heat shock protein HSP 90-alpha (Homo sapiens, UniProt P07900); assay type: functional, organism-based

Chain of DNA dC->dU-editing enzyme APOBEC-3A (P31941 whole entry): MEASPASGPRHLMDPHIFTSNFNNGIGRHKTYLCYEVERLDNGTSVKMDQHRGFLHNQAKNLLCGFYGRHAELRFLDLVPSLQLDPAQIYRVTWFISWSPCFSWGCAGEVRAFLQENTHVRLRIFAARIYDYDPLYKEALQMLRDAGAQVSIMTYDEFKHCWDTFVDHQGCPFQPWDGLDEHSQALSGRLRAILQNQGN

SMILES: CCOC(=O)c1cc(C)nc(S)c1C#N
- IC50 [1]: > 100 µM (inactive)
- IC50 [2]: 4.65 µM (active)

SMILES: Cc1[nH]c2nc(S)nc-2cc1Br
- IC50 [1]: > 100 µM (inactive)
- IC50 [2]: 1.98 µM (active)

SMILES: Cc1nnc(NC(=O)CSc2ncnc3c2cnn3-c2ccccc2C)s1
- EC50 [3]: > 150 µM (inactive)
- EC50 [4]: 0.573 µM (active)
- EC50 [5]: > 180 µM (inactive)
- AC50 (Cytochrome P450 2C19): inconclusive
- EC50 [6]: > 150 µM (inactive)

SMILES: Cc1nn(-c2ccccn2)c2nc(-c3cccs3)cc(C(=O)NCc3ccco3)c12
- CC50 (Vero): > 40 µM (active)

SMILES: O=C(COC(=O)c1cc(-c2ccc(Cl)s2)nc2ccccc12)NCc1ccco1
- CC50 (Vero): > 40 µM (active)

SMILES: CC1(C)Cc2c(sc(NC(=O)C(=O)N3CCCC3)c2C(N)=O)CO1
- IC50 (Bcl-2-related protein A1): > 20 µM (inactive)
- IC50 [11]: 1.47 µM (active)
- IC50 [12]: 9.62 µM (active)

SMILES: CC(C)Cn1c(-c2ccccc2F)n[nH]c1=S
- IC50 [1]: > 100 µM (inactive)
- IC50 [2]: 5.39 µM (active)

SMILES: O=C(CSc1nnc(-c2ccncc2)[nH]1)c1ccc(O)c(O)c1
- IC50 [8]: 6.53 µM (active)
- IC50 [9]: 6.95 µM (active)

SMILES: O=C(N/N=C/c1ccc(O)c2ncccc12)c1cccc(Br)c1
- EC50 [3]: 22.2 µM (active)
- EC50 [4]: 0.729 µM (active)
- AC50 [14]: 7.28 µM (active)
- EC50 [5]: > 180 µM (inactive)
- IC50 [15]: 1.67 µM (active)
- EC50 [16]: 1.66 µM (active)
- IC50 [17]: 1.68 µM (active)
- AC50 (INS1): 1.22 µM (active)
- EC50 [18]: 5.44 µM (active)
- AC50 [19]: 3.83 µM (active)
- EC50 [6]: > 160 µM (inactive)

Second part, led by results:

- IC50 [7]: > 100 µM (not active)
- IC50 [8]: > 100 µM (inactive)
- IC50 [9]: > 100 µM (inactive)
SMILES: Cc1ccc(-c2nc(N)nn2-c2ccccc2)cc1

- IC50 [10]: 5.68 µM (active)
SMILES: Cc1c(CCOC(=O)c2ccc(N3CCOCC3)c([N+](=O)[O-])c2)sc[n+]1CC#N

- IC50 [10]: 3.74 µM (active)
SMILES: Cc1noc(C)c1CN(C(=S)NC1CC2CCC1C2)c1ccccc1 (stereo unspecified)

- IC50 [8]: > 100 µM (inactive)
- IC50 [9]: > 100 µM (inactive)
SMILES: CC1(C)Oc2ccc([N+](=O)[O-])cc2O1

- IC50 (Bcl-2-related protein A1): > 20 µM (inactive)
- IC50 [11]: 3.37 µM (active)
- IC50 [12]: 8.84 µM (active)
SMILES: Cn1cncc1C#Cc1c(-c2ccc(S(C)(=O)=O)cc2)sc2ccccc12

- AC50 (ORF 73): 0.544 µM (active)
SMILES: C/C(=N/NC(=O)c1ccncc1)c1cc2ccc(O)cc2oc1=O
- AC50 [13]: 116 µM (active)
